We go through twelve molecules from ChEMBL document CHEMBL1201862, “PubChem BioAssay data set” (2004).

Test systems include EKVX; IGROV-1; NCI-H23; DU-145; A549; MDA-N; PC-3; SNB-75; COLO 205; HCT-116; BT-549; CCRF-CEM; 786-0; ACHN; UACC-257; CAKI-1; MCF7; HL-60.
Common to all, as to test: inhibition of tumour cell growth, NCI panel, 48 h

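Grown in 96-well plates, cells were treated for 48 hours with each compound at five concentrations. Insufficient inhibition: endpoint recorded as highest concentration tested. At the GI50, growth is halved.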 Calls of active or inactive are those of the source. Rule as the data show it: active = GI50 up to about 1.1 µM and inactive = higher. Bounds are passed on as bounds.

With `CCCCCCCCC/C=C1/CC(CO)(COC(=O)c2ccccc2)OC1=O` (centres undefined), the GI50 in the experiment with EKVX was 14.9 µM (inactive); in the experiment with IGROV-1 it was 16.1 µM (inactive); with NCI-H23 it was 15 µM (inactive); in the experiment on DU-145 it was 12.9 µM (inactive); with A549 it was 12.9 µM (inactive); in the experiment on MDA-N it was 6.01 µM (inactive). Moreover, the GI50 in the experiment with PC-3 is 10.8 µM (inactive); in the experiment with SNB-75 it was 10.2 µM (inactive); with COLO 205, 1.85 µM (inactive); with HCT-116 it was 23.2 µM (inactive); in the experiment on BT-549 it was 14.1 µM (inactive); with CCRF-CEM, 10.9 µM (inactive). The GI50 in the experiment on 786-0 was 10.4 µM (inactive); in the experiment on ACHN it was 12.4 µM (inactive); in the experiment on UACC-257 it was 14.2 µM (inactive); in the experiment with CAKI-1 it was 12.2 µM (inactive); in the experiment with MCF7 it was 16.3 µM (inactive).

Consider `Cc1n[n+](Cc2ccccc2)c2sc(N)nn12`, for which the GI50 in the experiment on EKVX, in the experiment on IGROV-1, in the experiment with NCI-H23, in the experiment with DU-145, in the experiment on A549 and with MDA-N was > 100 µM (inactive) in each case. In addition, the GI50 in the experiment with PC-3 was > 100 µM (inactive); with SNB-75, > 100 µM (inactive); in the experiment on COLO 205 it was > 100 µM (inactive); in the experiment with HCT-116, 76.4 µM (inactive); with BT-549, 38.4 µM (inactive); in the experiment on CCRF-CEM, 32 µM (inactive). The GI50 in the experiment on 786-0, in the experiment on ACHN, in the experiment with UACC-257, in the experiment with CAKI-1 and in the experiment on MCF7 was > 100 µM (inactive) in each case.

`O=C(Cn1c2ccc(Br)cc2c2nc3ccccc3nc21)N1CCOCC1`: the GI50 in the experiment with IGROV-1 was 49.7 µM (inactive); in the experiment on NCI-H23, 53 µM (inactive); in the experiment on DU-145 it was > 100 µM (inactive); in the experiment with A549, 98.4 µM (inactive); with MDA-N, > 100 µM (inactive); in the experiment with PC-3 it was 95.7 µM (inactive). Further, the GI50 with SNB-75 was 22.1 µM (inactive); with COLO 205, > 100 µM (inactive); in the experiment on HCT-116, 50.2 µM (inactive); in the experiment on BT-549 it was > 100 µM (inactive); with CCRF-CEM, > 100 µM (inactive); in the experiment on 786-0, > 100 µM (inactive). Further, the GI50 with ACHN, in the experiment with UACC-257 and in the experiment on CAKI-1 was > 100 µM (inactive) in each case.

For `COc1cc(N(CCC#N)CCC#N)ccc1C(/N=N/c1cccc([N+](=O)[O-])c1)=N\NC(=O)c1ccc(C)cc1`, the GI50 with EKVX is 10.4 µM (inactive); in the experiment on IGROV-1, > 100 µM (inactive); in the experiment with NCI-H23, 37.1 µM (inactive); in the experiment on DU-145, > 100 µM (inactive); in the experiment on A549, > 100 µM (inactive); in the experiment with MDA-N, 84.5 µM (inactive). Further, the GI50 in the experiment with PC-3 was > 100 µM (inactive); in the experiment with COLO 205, > 100 µM (inactive); with HCT-116, 50.5 µM (inactive); in the experiment with BT-549, 22 µM (inactive); in the experiment with CCRF-CEM it was 20.6 µM (inactive); in the experiment with 786-0, > 100 µM (inactive). The GI50 was > 100 µM (inactive) with ACHN; 14.5 µM (inactive) in the experiment on UACC-257; > 100 µM (inactive) with CAKI-1; 10.8 µM (inactive) in the experiment with HL-60; 45 µM (inactive) in the experiment on MCF7.

Consider `Cc1ccc(S(N)(=O)=O)cc1` [P-TOLUENESULFONAMIDE], for which the GI50 with EKVX, in the experiment with IGROV-1, in the experiment on NCI-H23, in the experiment on DU-145, in the experiment on A549 and in the experiment with MDA-N was > 1000 µM (inactive) throughout. Also, the GI50 in the experiment on PC-3 was > 1000 µM (inactive); with COLO 205, > 1000 µM (inactive); in the experiment with HCT-116, > 1000 µM (inactive); with BT-549, 977 µM (inactive); with CCRF-CEM, > 1000 µM (inactive); in the experiment with 786-0 it was > 1000 µM (inactive). Moreover, the GI50 in the experiment on ACHN, in the experiment on UACC-257, in the experiment with HL-60 and in the experiment with MCF7 was > 1000 µM (inactive) each time.

Turning to `CC(=O)/N=C1\C=C(NC(C)=O)C(=O)c2ccccc21`, the GI50 is 5.19 µM (inactive) in the experiment with EKVX; 1.71 µM (inactive) with IGROV-1; 0.451 µM (active) in the experiment with NCI-H23; 4.62 µM (inactive) in the experiment with A549; 1.9 µM (inactive) in the experiment with MDA-N; 2.9 µM (inactive) in the experiment with PC-3. The GI50 in the experiment on SNB-75 was 2.54 µM (inactive); with COLO 205, 1.94 µM (inactive); in the experiment with HCT-116, 1.49 µM (inactive); in the experiment on BT-549 it was 2.17 µM (inactive); with CCRF-CEM, 2.84 µM (inactive); with 786-0, 1.81 µM (inactive). In addition, the GI50 was 1.45 µM (inactive) with ACHN; 1.81 µM (inactive) with UACC-257; 1.95 µM (inactive) with CAKI-1; 1.85 µM (inactive) with HL-60; 1.76 µM (inactive) in the experiment on MCF7.

For `O=c1[nH]cc(-c2c[nH]c3ccccc23)nc1-c1c[nH]c2ccccc12`, the GI50 is 12.2 µM (inactive) in the experiment with EKVX; 2.92 µM (inactive) in the experiment on IGROV-1; 14.7 µM (inactive) in the experiment with NCI-H23; 13.2 µM (inactive) in the experiment with DU-145; 21 µM (inactive) in the experiment on A549; 2.47 µM (inactive) with MDA-N. Besides, the GI50 is 14.5 µM (inactive) in the experiment with PC-3; 10.3 µM (inactive) in the experiment with SNB-75; 10.9 µM (inactive) in the experiment with COLO 205; 10.8 µM (inactive) in the experiment with HCT-116; 15.3 µM (inactive) in the experiment on BT-549; 11.3 µM (inactive) in the experiment with 786-0. For the same molecule, the GI50 in the experiment with ACHN is 11.6 µM (inactive); in the experiment on UACC-257, 13 µM (inactive); in the experiment with CAKI-1, 3.28 µM (inactive); in the experiment on MCF7, 10.2 µM (inactive).

Regarding `Cc1cc(C)n(CN(Cn2nc(C)cc2C)C2CCCCC2)n1`, the GI50 with EKVX is 31.8 µM (inactive); in the experiment with IGROV-1, 20.1 µM (inactive); in the experiment on NCI-H23, 24 µM (inactive); in the experiment with DU-145, 24.3 µM (inactive); in the experiment with A549, 66.2 µM (inactive); in the experiment with MDA-N, 19 µM (inactive). In addition, the GI50 with PC-3 was 22.9 µM (inactive); in the experiment on SNB-75, 17.1 µM (inactive); in the experiment with COLO 205 it was 18.1 µM (inactive); in the experiment on HCT-116, 22.4 µM (inactive); with BT-549, 23.3 µM (inactive); in the experiment on CCRF-CEM it was 19 µM (inactive). Moreover, the GI50 is 23.1 µM (inactive) with 786-0; 23.4 µM (inactive) in the experiment with ACHN; 28.1 µM (inactive) in the experiment on UACC-257; 31.5 µM (inactive) in the experiment on CAKI-1; 32.6 µM (inactive) in the experiment on MCF7.

With `N=C(/C=C/c1ccc(-c2cn3cc(/C=C/C(=N)N4CCOCC4)ccc3n2)cc1)N1CCOCC1`, the GI50 in the experiment on EKVX, with IGROV-1, with NCI-H23, with DU-145, with A549 and in the experiment with MDA-N was > 100 µM (inactive) throughout. The GI50 in the experiment on PC-3, in the experiment with SNB-75, in the experiment with COLO 205, in the experiment with HCT-116, with BT-549 and in the experiment with 786-0 was > 100 µM (inactive) in each case. Further, the GI50 in the experiment with ACHN was > 100 µM (inactive); with UACC-257, > 100 µM (inactive); with CAKI-1, > 100 µM (inactive); in the experiment on MCF7, 94 µM (inactive).

Consider `Cc1cc(N(CCC#N)CCC#N)ccc1C(/N=N/c1ccc([N+](=O)[O-])cc1)=N\NC(=O)c1cc(Cl)ccc1C(=O)c1ccccc1`, for which the GI50 in the experiment with EKVX is 6.11 µM (inactive); in the experiment on IGROV-1 it was 3.56 µM (inactive); in the experiment with NCI-H23, 13.3 µM (inactive); with DU-145 it was 10.9 µM (inactive); with A549, 15 µM (inactive); in the experiment on MDA-N, 18.9 µM (inactive). In addition, the GI50 in the experiment with PC-3 was 6.5 µM (inactive); with SNB-75 it was 24.6 µM (inactive); with COLO 205, 16.2 µM (inactive); with HCT-116, 4.23 µM (inactive); in the experiment with BT-549 it was 19 µM (inactive); in the experiment with CCRF-CEM, 2.98 µM (inactive). The GI50 in the experiment with 786-0 is 7.64 µM (inactive); in the experiment with ACHN, 12.2 µM (inactive); in the experiment with UACC-257, 32.2 µM (inactive); in the experiment on CAKI-1, 12.5 µM (inactive); in the experiment with MCF7 it was 4.95 µM (inactive).

As for `CC1(O)/C(=N/O)CC2CC1C2(C)C` (centres undefined), the GI50 in the experiment with IGROV-1, in the experiment on NCI-H23, in the experiment on DU-145, in the experiment on A549, in the experiment on MDA-N and in the experiment with SNB-75 was > 100 µM (inactive) in each case. For the same molecule, the GI50 with COLO 205, with BT-549, in the experiment with CCRF-CEM, in the experiment with 786-0, with ACHN and in the experiment with UACC-257 was > 100 µM (inactive) in each case. The GI50 in the experiment on HL-60 and in the experiment with MCF7 was > 100 µM (inactive) in each case.

For the molecule `COc1cc2c[n+](C)c3c4cc(OC)c(OC)cc4c(OCc4ccccc4)cc3c2cc1OC`, the GI50 is > 100 µM (inactive) with EKVX; 1.32 µM (inactive) with NCI-H23; 1.08 µM (active) with DU-145; 4.72 µM (inactive) in the experiment on A549; 0.982 µM (active) with MDA-N; 0.877 µM (active) with PC-3. Further, the GI50 in the experiment with SNB-75 was 0.199 µM (active); in the experiment on COLO 205 it was 0.263 µM (active); in the experiment on HCT-116, 1.02 µM (active); in the experiment with BT-549, 0.32 µM (active); in the experiment on 786-0, 0.634 µM (active); in the experiment on ACHN, > 69.3 µM (inactive). Moreover, the GI50 in the experiment on UACC-257 is 0.706 µM (active); with CAKI-1, > 39.2 µM (inactive); in the experiment with MCF7, 0.578 µM (active).
